# Source: patent US20250188075A1, “SUBSTITUTED HETEROCYCLIC CSNK1 INHIBITORS” (The Broad Institute, Inc., priority 2022, published 2025)
# Target: human Ether-a-go-go-Related Gene (hERG) potassium channel (Homo sapiens (Human), UniProt Q12809)
# Test: hERG inhibition assay, automated voltage clamp
# Format: cell-based
# Conditions: HEK293 cells stably expressing hERG alpha subunit
# Procedure: Following harvest, cells were transferred to the cell reservoir of a 384 channel automated patch clamp device and stored there at 20° C. until usage.
# Upon start of the automated voltage clamp procedure, hERG cells were transferred to a 384 well patch clamp chip (pipette resistance of ˜[…] (2) prefilled with external solution (containing in mM: 143 NaCl, 4 KCl, 2 CaCl2), 1 MgCl2, 5 glucose, 10 HEPES; pH 7.4 (NaOH)). Underpressure was applied underneath the glass bottom of the patch clamp chip to position the hERG cells on the recording sites in the glass bottom of the chip. Following successful cell catch, underpressure was stopped and a seal enhancing solution (containing in mM: 78 NaCl, 60 NMDG, 4 KCl, 10 CaCl2), 1 MgCl2, 5 glucose, 10 HEPES; pH 7.4 (HCl)) was added to the hERG cells to facilitate the formation of stable seals between the membranes of the hERG cells and the glass next to the recording sites. Then, hERG cells were washed several times with wash solution (containing in mM: 87 NaCl, 60 NMDG, 4 KCl, 2 CaCl2), 1 MgCl2, 5 glucose, 10 HEPES; pH 7.4 (HCl)) to remove excess seal enhancing solution. In the meantime, the membrane parts of the hERG cells covering the recording sites were exposed to internal solution (containing in mM: 10 NaCl, 123 KF, 10 EGTA, 10 HEPES; pH 7.2 (KOH)) supplemented with 5-20 μM Escin, and the perforated patch configuration was established. Next, the holding potential was stepwise adjusted to −80 mV, capacitance was compensated, and a series of defined voltage commands was initiated to trigger the hERG current response from the hERG cells (−80 mV for 200 ms, +20 mV for 1000 ms, −40 mV for 500 ms; repeated at a frequency of 0.1 Hz). To determine whether the test item inhibits hERG, different solutions were sequentially applied to the hERG cells: First, a negative control (i.e. wash solution supplemented with 0.3% DMSO and 0.01% HSA) was applied for at least 3 min to investigate the basic electrophysiological properties of the hERG cells as well as define their standard current response. Next, a solution containing the test item at a final concentration of (0.1, 1, or 10) μM was applied for 10 min to measure eventual inhibitory effects of the test item on the hERG current (—the test item solution was produced from a 10 mM DMSO stock by using an automated pipetting device and sequential dilution). Finally, a positive control (i.e. wash solution supplemented with 0.3% DMSO, 0.01% HSA, and 10 μM quinidine) was added to the cells for ˜3 min to block the hERG current and, thereby, define the maximum inhibition. For data analysis, experimental results were processed using the automated patch clamp device-specific software as well as a custom-made software, and TIBCO Spotfire. For each successful recording, hERG tail current amplitudes were averaged from three consecutive current responses at the end of the negative control phase, test item phase, and positive control phase, respectively. Resulting mean hERG tail current amplitudes were normalized to the mean hERG tail current amplitude at the end of the negative control phase with nominal 0% inhibition as well as the hERG tail current amplitude at the end of the positive control phase with nominal 100% inhibition. Then, the effect of the test item was calculated as a percentage inhibition value at the test item concentration applied. Finally, percentage inhibition values from all successful recordings at a particular test item concentration were averaged and combined to construct a standard sigmoidal dose response curve, determine the half maximal inhibitory concentration (IC50) of the test item as well as extrapolate its IC20.
# Sequence of human Ether-a-go-go-Related Gene (hERG) potassium channel (Q12809 whole entry): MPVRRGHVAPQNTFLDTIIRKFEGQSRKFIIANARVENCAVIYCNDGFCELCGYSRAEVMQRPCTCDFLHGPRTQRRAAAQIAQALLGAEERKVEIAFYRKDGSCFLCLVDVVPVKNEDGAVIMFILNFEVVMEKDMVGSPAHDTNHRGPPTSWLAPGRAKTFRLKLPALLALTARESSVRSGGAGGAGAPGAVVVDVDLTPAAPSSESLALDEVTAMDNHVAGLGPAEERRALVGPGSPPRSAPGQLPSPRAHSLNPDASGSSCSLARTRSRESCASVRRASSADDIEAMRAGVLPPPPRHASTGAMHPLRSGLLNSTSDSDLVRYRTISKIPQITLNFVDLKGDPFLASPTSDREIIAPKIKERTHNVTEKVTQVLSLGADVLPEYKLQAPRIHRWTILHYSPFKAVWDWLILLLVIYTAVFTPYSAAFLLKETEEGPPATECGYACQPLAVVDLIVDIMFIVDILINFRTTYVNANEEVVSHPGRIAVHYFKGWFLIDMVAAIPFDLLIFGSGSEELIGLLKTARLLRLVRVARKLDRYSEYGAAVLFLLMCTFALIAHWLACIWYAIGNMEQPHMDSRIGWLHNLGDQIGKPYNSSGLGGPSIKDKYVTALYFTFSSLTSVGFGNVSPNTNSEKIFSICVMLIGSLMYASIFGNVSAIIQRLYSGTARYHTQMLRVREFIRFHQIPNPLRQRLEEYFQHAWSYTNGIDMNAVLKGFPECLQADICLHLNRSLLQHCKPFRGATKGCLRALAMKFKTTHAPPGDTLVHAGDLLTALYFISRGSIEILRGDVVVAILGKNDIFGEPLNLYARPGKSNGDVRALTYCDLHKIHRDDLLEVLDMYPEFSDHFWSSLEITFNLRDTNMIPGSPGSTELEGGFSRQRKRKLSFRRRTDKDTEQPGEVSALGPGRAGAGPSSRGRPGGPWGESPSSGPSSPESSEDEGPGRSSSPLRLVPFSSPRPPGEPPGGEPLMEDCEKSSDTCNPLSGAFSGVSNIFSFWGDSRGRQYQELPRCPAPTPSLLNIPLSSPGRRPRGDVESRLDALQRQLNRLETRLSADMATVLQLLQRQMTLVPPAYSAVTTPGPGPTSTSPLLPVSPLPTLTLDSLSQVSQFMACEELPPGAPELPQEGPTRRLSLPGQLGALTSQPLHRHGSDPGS
row,SMILES,IC50 [µM]
1,"Cc1nc(CC(=O)Nc2cc(-c3[nH]c4cccnc4c3-c3ccccn3)ccn2)cs1 [Example 3, 2-(2-methylthiazol-4-yl)-N-[4-[3-(2-pyridyl)-^1H-pyrrolo[3,2-b]pyridin-2-yl]-2-pyridyl]acetamide]",5.98
2,O=C(Cc1cnco1)Nc1cc(-c2[nH]c3cccnc3c2-c2ccccn2)ccn1 [Example 4],> 10
3,"O=C(Cc1cnc2ccccc2n1)Nc1cc(-c2[nH]c3cccnc3c2-c2ccccn2)ccn1 [Example 6, N-[4-[3-(2-pyridyl)-^1H-pyrrolo[3,2-b]pyridin-2-yl]-2-pyridyl]-2-quinoxalin-2-yl-acetamide]",5.35
4,"O=C(Cc1cc2ccccn2n1)Nc1cc(-c2[nH]c3cccnc3c2-c2ccccn2)ccn1 [Example 15, 2-pyrazolo[1,5-a]pyridin-2-yl-N-[4-[3-(2-pyridyl)-^1H-pyrrolo[3,2-b]pyridin-2-yl]-2-pyridyl]acetamide]",1.45
5,"Cc1nc(C)c(CC(=O)Nc2cc(-c3[nH]c4cccnc4c3-c3ccccn3)ccn2)s1 [Example 18, 2-(2,4-dimethylthiazol-5-yl)-N-[4-[3-(2-pyridyl)-^1H-pyrrolo[3,2-b]pyridin-2-yl]-2-pyridyl]acetamide]",2.05
6,"Cn1nc(CC(=O)Nc2cc(-c3[nH]c4cccnc4c3-c3ccccn3)ccn2)cc1C(F)(F)F [Example 21, 2-[1-methyl-5-(trifluoromethyl)pyrazol-3-yl]-N-[4-[3-(2-pyridyl)-^1H-pyrrolo[3,2-b]pyridin-2-yl]-2-pyridyl]acetamide]",0.81
7,"CC(C)n1ccc(CC(=O)Nc2cc(-c3[nH]c4cccnc4c3-c3ccccn3)ccn2)n1 [Example 28, 2-(1-isopropylpyrazol-3-yl)-N-[4-[3-(2-pyridyl)-^1H-pyrrolo[3,2-b]pyridin-2-yl]-2-pyridyl]acetamide]",8.69
